Patent publication US5223517A, “Heterocyclically substituted cycloalkano[b]-indolesulphonamides” (Bayer Aktiengesellschaft, priority 1990, dated 1993)
Structures can show the parent of a compound that is named as a salt.

Each molecule was assayed on platelet aggregation (platelet-rich citrate plasma, collagen) (assay: platelet aggregation-inhibiting action (TAI), collagen-induced, platelet-rich plasma, turbidometric method). Conditions: Homo sapiens, 0.1 h, range of the minimum effective concentration, PRP, 37° C., result after 6 minutes, read-out: TAI threshold concentration.
Assay type: cell-based
Text: Blood from healthy subjects of both sexes was used for the determination of the platelet aggregation-inhibiting action. As an anticoagulant, one part of 3.8% strength aqueous sodium citrate solution was admixed to 9 parts of blood. Platelet-rich citrate plasma (PRP)^1 is obtained from this blood by means of centrifugation (Jurgens/Beller, Klinische Methoden der Blutgerinnungsanalyse (Clinical Methods of Blood Coagulation Analysis); Thieme Verlag, Stuttgart, 1959).
For these investigations, 0.8 ml of PRP and 0.1 ml of the active compound solution were preincubated in a water bath at 37° C. The platelet aggregation was then determined by the turbidometric method (Born, G. V. R., J. Physiol. (London), 162, 67, 1962) in an aggregometer at 37° C. (Therapeutische Berichte 47, 80-86, 1975). To this end, 0.1 ml of collagen, an aggregation-inducing agent, was added to the preincubated sample. The change in the optical density in the sample of PRP^1 was recorded during a period of 6 minutes and the results was determined after 6 minutes. To do this, the percentage inhibition is calculated compared to the control.
The range of the minimum effective concentration is given as the threshold concentration.

| SMILES | minimal effective concentration [µg/mL] |
| --- | --- |
| O=C(O)CCn1c2c(c3cc(CCc4cccnc4)ccc31)CC(NS(=O)(=O)c1ccc(F)cc1)CC2 (stereo not shown) [Example 17] | 0.03 to 0.1 |
| O=C(O)CCn1c2c(c3c(Cc4cccnc4)cccc31)CC(NS(=O)(=O)c1ccc(F)cc1)CC2 (stereo not shown) [Example 18] | 0.3 to 1 |
| O=C(O)CCn1c2c(c3cc(C(=O)CCc4cccnc4)ccc31)CC(NS(=O)(=O)c1ccc(F)cc1)CC2 (stereo not shown) [Example 20] | 0.03 to 0.1 |
| O=C(O)CCn1c2c(c3cc(OCc4ccccn4)ccc31)CC(N(Cc1ccccn1)S(=O)(=O)c1ccc(F)cc1)CC2 (stereo not shown) [Example 25] | 0.03 to 0.1 |

Each molecule was assayed against T1, thromboxane synthase (Homo sapiens, UniProt P24557) (assay: Measurement of the thromboxane synthase in washed human platelets). Conditions: 3H-arachidonic acid, 37° C., 10 min, read-out: IC50 (50% inhibition of thromboxane formation compared to the control).
T1 construct: 1 ml of the platelet suspension and 0.01 ml of the test preparation in 10% DMSO are incubated at 37° C. for 2 min; endogenous in cells; host or cells: washed human platelets from blood of healthy donors
T1 sequence (P24557 1-533): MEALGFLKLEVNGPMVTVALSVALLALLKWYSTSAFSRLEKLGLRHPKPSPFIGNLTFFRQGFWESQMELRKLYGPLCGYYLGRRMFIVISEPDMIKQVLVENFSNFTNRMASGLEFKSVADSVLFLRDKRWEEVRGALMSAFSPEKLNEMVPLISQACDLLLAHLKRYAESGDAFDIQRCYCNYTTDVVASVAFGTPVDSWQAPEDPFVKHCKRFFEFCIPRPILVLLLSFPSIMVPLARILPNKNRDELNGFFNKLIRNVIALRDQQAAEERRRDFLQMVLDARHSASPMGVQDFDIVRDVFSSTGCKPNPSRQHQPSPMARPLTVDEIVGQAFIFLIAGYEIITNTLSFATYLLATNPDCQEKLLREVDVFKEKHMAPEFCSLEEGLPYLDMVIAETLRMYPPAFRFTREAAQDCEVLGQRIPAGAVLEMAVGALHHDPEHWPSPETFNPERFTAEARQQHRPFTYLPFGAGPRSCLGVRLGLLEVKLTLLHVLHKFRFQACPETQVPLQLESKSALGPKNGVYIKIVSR
Assay type: cell-based

| IC50 [nM] | SMILES |
| --- | --- |
| 200 | O=C(O)CCn1c2c(c3cc(Cc4cccnc4)ccc31)CC(NS(=O)(=O)c1ccc(F)cc1)CC2 (stereo not shown) [Example 11, 9-(2-Carboxyethyl)-3-(4-fluorophenylsulphonamido)-6-(3-pyridyl-methyl)-1,2,3,4-tetrahydro-carbazole hydrochloride] |
| 1000 | O=C(O)CCn1c2c(c3cc(CCc4cccnc4)ccc31)CC(NS(=O)(=O)c1ccc(F)cc1)CC2 (stereo not shown) [Example 17] |
| 100 | O=C(O)CCn1c2c(c3ccc(-c4cccnc4)cc31)CC(NS(=O)(=O)c1ccc(F)cc1)CC2 (stereo not shown) [Example 24] |
